Source: PubChem BioAssay AID2060493 (Molecular Pharmacology Branch, DTP, NCI, 2025)

Test system: 616215-338-R-J1-PDC tumor spheroids, viability
Assay: Anticancer human tumor 616215-338-R-J1-PDC patient-derived colon adenocarcinoma cell line growth inhibition [GQUAD]
Settings: spheroids with HUVEC and MSC; for IC50: curve of first compound; for viability, T/C: stronger effect = lower value
Outline: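 Multi-cell-type spheroids of tumor cells with HUVEC and mesenchymal stem cells, treated with drug combinations. Concentrations descend in half-log steps from near clinical Cmax, or from 10 microM where Cmax is unknown; viability read-out.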

[1] = second compound 0.0316 µM, first compound 0.0316 µM
[2] = second compound 0.0316 µM, first compound 0.316 µM
[3] = second compound 0.1 µM, first compound 0.0316 µM
[4] = second compound 0.1 µM, first compound 0.316 µM
[5] = second compound 0.316 µM, first compound 0.0316 µM
[6] = second compound 0.316 µM, first compound 0.316 µM
[7] = second compound 1 µM, first compound 0.0316 µM
[8] = second compound 1 µM, first compound 0.316 µM
[9] = second compound 3.16 µM, first compound 0.0316 µM
[10] = second compound 3.16 µM, first compound 0.316 µM
[11] = second compound 10 µM, first compound 0.0316 µM
[12] = second compound 10 µM, first compound 0.316 µM
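Further: spheroids exposed to agents for 7 days before readout.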
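Wherever viability, T/C is given: percent viability relative to DMSO vehicle control wells taken as 100%.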

Which results are given for `O=C(NO)c1cnc(N2CCN(S(=O)(=O)c3ccc4ccccc4c3)CC2)nc1` + CN(C)c1ccc(Nc2c3ccc(NC(=O)CCN4CCCC4)cc3nc3cc(NC(=O)CCN4CCCC4)ccc23)cc1?
IC50 (second compound 0.0316 µM): 324 nM; IC50 (second compound 0.1 µM): 322 nM; IC50 (second compound 0.316 µM): 255 nM; IC50 (second compound 1 µM): 312 nM; IC50 (second compound 3.16 µM): 293 nM; IC50 (second compound 10 µM): 220 nM; viability, T/C [1]: 104%; viability, T/C (second compound 0.0316 µM, first compound 0.1 µM): 97.5%; viability, T/C [2]: 51.4%; viability, T/C (second compound 0.0316 µM, first compound 1 µM): 1.08%; viability, T/C (second compound 0.0316 µM, first compound 3.16 µM): 0.1%; viability, T/C (second compound 0.0316 µM, first compound 10 µM): 0.1%; viability, T/C [3]: 105%; viability, T/C (second compound 0.1 µM, first compound 0.1 µM): 107%; viability, T/C [4]: 50.8%; viability, T/C (second compound 0.1 µM, first compound 1 µM): 0.65%; viability, T/C (second compound 0.1 µM, first compound 3.16 µM): 0.04%; viability, T/C (second compound 0.1 µM, first compound 10 µM): 0.07%; viability, T/C [5]: 99.6%; viability, T/C (second compound 0.316 µM, first compound 0.1 µM): 103%; viability, T/C [6]: 38.2%; viability, T/C (second compound 0.316 µM, first compound 1 µM): 0.54%; viability, T/C (second compound 0.316 µM, first compound 3.16 µM): 0.02%; viability, T/C (second compound 0.316 µM, first compound 10 µM): 0.06%; viability, T/C [7]: 96.5%; viability, T/C (second compound 1 µM, first compound 0.1 µM): 98.1%; viability, T/C [8]: 49.5%; viability, T/C (second compound 1 µM, first compound 1 µM): 0.3%; viability, T/C (second compound 1 µM, first compound 3.16 µM): 0.03%; viability, T/C (second compound 1 µM, first compound 10 µM): 0.07%; viability, T/C [9]: 89.9%; viability, T/C (second compound 3.16 µM, first compound 0.1 µM): 93.7%; viability, T/C [10]: 47%; viability, T/C (second compound 3.16 µM, first compound 1 µM): 0.25%; viability, T/C (second compound 3.16 µM, first compound 3.16 µM): 0.07%; viability, T/C (second compound 3.16 µM, first compound 10 µM): 0.1%; viability, T/C [11]: 101%; viability, T/C (second compound 10 µM, first compound 0.1 µM): 80.5%; viability, T/C [12]: 37.7%; viability, T/C (second compound 10 µM, first compound 1 µM): 0.24%; viability, T/C (second compound 10 µM, first compound 3.16 µM): 0.16%; viability, T/C (second compound 10 µM, first compound 10 µM): 0.17%

Which results are given for `CC[C@@]1(O)C(=O)OCc2c1cc1n(c2=O)Cc2cc3c(CN(C)C)c(O)ccc3nc2-1` + Cc1cnc(CNC(=O)c2c(=O)c3ccc(N4CCCN(C)CC4)nc3n3c2sc2ccccc23)cn1?
IC50 (second compound 0.0316 µM): 274 nM; IC50 (second compound 0.1 µM): 142 nM; IC50 (second compound 0.316 µM): < 0.999 nM; IC50 (second compound 1 µM): < 0.999 nM; IC50 (second compound 3.16 µM): < 0.999 nM; IC50 (second compound 10 µM): < 0.999 nM; viability, T/C (second compound 0.0316 µM, first compound 0.000999 µM): 116%; viability, T/C (second compound 0.0316 µM, first compound 0.00316 µM): 102%; viability, T/C (second compound 0.0316 µM, first compound 0.00999 µM): 92.5%; viability, T/C [1]: 94.9%; viability, T/C (second compound 0.0316 µM, first compound 0.0999 µM): 87%; viability, T/C [2]: 43.7%; viability, T/C (second compound 0.1 µM, first compound 0.000999 µM): 81.5%; viability, T/C (second compound 0.1 µM, first compound 0.00316 µM): 68.1%; viability, T/C (second compound 0.1 µM, first compound 0.00999 µM): 64.2%; viability, T/C [3]: 74.8%; viability, T/C (second compound 0.1 µM, first compound 0.0999 µM): 54.1%; viability, T/C [4]: 35.4%; viability, T/C (second compound 0.316 µM, first compound 0.000999 µM): 38.5%; viability, T/C (second compound 0.316 µM, first compound 0.00316 µM): 45.3%; viability, T/C (second compound 0.316 µM, first compound 0.00999 µM): 39.2%; viability, T/C [5]: 40.5%; viability, T/C (second compound 0.316 µM, first compound 0.0999 µM): 53.4%; viability, T/C [6]: 40.2%; viability, T/C (second compound 1 µM, first compound 0.000999 µM): 36.9%; viability, T/C (second compound 1 µM, first compound 0.00316 µM): 38.4%; viability, T/C (second compound 1 µM, first compound 0.00999 µM): 32.4%; viability, T/C [7]: 27.7%; viability, T/C (second compound 1 µM, first compound 0.0999 µM): 24.9%; viability, T/C [8]: 25.3%; viability, T/C (second compound 3.16 µM, first compound 0.000999 µM): 37.1%; viability, T/C (second compound 3.16 µM, first compound 0.00316 µM): 36.5%; viability, T/C (second compound 3.16 µM, first compound 0.00999 µM): 31.6%; viability, T/C [9]: 34.2%; viability, T/C (second compound 3.16 µM, first compound 0.0999 µM): 29.3%; viability, T/C [10]: 18.5%; viability, T/C (second compound 10 µM, first compound 0.000999 µM): 31.9%; viability, T/C (second compound 10 µM, first compound 0.00316 µM): 25%; viability, T/C (second compound 10 µM, first compound 0.00999 µM): 42.2%; viability, T/C [11]: 24.2%; viability, T/C (second compound 10 µM, first compound 0.0999 µM): 25.3%; viability, T/C [12]: 16.1%
